Tests used:
[1] = tested on: patients without positive bacterial cultures localized to the prostatic fluid; assay: Example II: double blind placebo-controlled study using 30 patients; type: in vivo
Method: A double blind study using 30 patients without positive bacterial cultures localized to the prostatic fluid are enrolled in a double blind study. Seventeen of the patients receive a composition comprised of quercetin in amount of 500 milligrams, bromelin in an amount of 10 milligrams, and papain in an amount of 10 milligrams as the active ingredients thereof. After a randomized study is completed, an additional fifteen patients are treated in an open label study with only the […]. […] The mean symptom score improves from 21.0 to 13.1 in the group receiving quercetin, but from 20.2 to 18.8 in the placebo group. This represents an improvement of 35%. In those patients which receive only the quercetin, without the papain and bromelin, with obtainable secretions, the white blood cell count in the decreases from 16.8 to 5.3, versus a decrease from 13.1 to 8.3 in the placebo patients.

[2] = Tests of bioavailability of quercetin alone; type: in vivo; settings: transmural intestinal absorption relatively low
[3] = tested on: chronic interstitial cystitis syndromes; settings: quercetin alone; cited from earlier work

O=c1c(O)c(-c2ccc(O)c(O)c2)oc2cc(O)cc(O)c12 [quercetin]
mean symptom score, after treatment ([1]; end value of the group): 13.1
improvement of mean symptom score ([1]; human, in vivo): 35%
white blood cell count in secretions, after treatment ([1]; patients with obtainable secretions, end value): 5.3
white blood cell count in secretions, before treatment ([1]; patients with obtainable secretions, start value): 16.8
mean symptom score, before treatment ([1]; start value of the group): 21.0
bioavailability [2]: does not have a high bioavailability
symptomatic response of patients [3]: significant

From patent US20010051191A1, “Composition and method for treating non-bacterial cystitis” (priority 2000, published 2001)
